In the CheMixHub viscosity set:
Where “and” joins values, the source holds several entries; their conditions need not be identical. Equal values may be shown once. ± gives the uncertainty stated by the source.

Test: xn = mol fraction of the nth substance listed

CC[N+](CC)(CC)CC.[OH-] + O
viscosity [mPa·s], 101 kPa
Settings	x1 = 0.00313	x1 = 0.0064	x1 = 0.01341	x1 = 0.02113	x1 = 0.02968	x1 = 0.03918	x1 = 0.04982
298.15 K	0.9776 ± 0.017	1.114 ± 0.02	1.248 ± 0.023	1.659 ± 0.031	2.07 ± 0.039	2.869 ± 0.056	3.679 ± 0.073
303.15 K	0.8738 ± 0.016	0.9902 ± 0.018	1.107 ± 0.02	1.453 ± 0.027	1.8 ± 0.034	2.455 ± 0.048	3.111 ± 0.062
313.15 K	0.7149 ± 0.013	0.8019 ± 0.014	0.8902 ± 0.016	1.144 ± 0.021	1.399 ± 0.026	1.856 ± 0.036	2.313 ± 0.046
323.15 K	0.6005 ± 0.011	0.6598 ± 0.012	0.7359 ± 0.013	0.9278 ± 0.017	1.121 ± 0.021	1.45 ± 0.028	1.779 ± 0.035

O=P([O-])(O)O.[Li+] + O
viscosity [mPa·s], 101 kPa
Settings	x1 = 0.0018	x1 = 0.0054	x1 = 0.0089	x1 = 0.012	x1 = 0.016
298.15 K	0.9076 ± 0.0079	1.021 ± 0.0091	1.099 ± 0.0099	1.209 ± 0.011	1.318 ± 0.011
303.15 K	0.8338 ± 0.0075	0.9078 ± 0.0084	0.9891 ± 0.009	1.084 ± 0.01	1.211 ± 0.011
308.15 K	0.7493 ± 0.0071	0.8183 ± 0.0076	0.888 ± 0.0083	0.9579 ± 0.0092	1.028 ± 0.011

OCC(O)C(O)CO (centres undefined) + O
viscosity [mPa·s], 101 kPa
Settings	293.15 K	298.15 K	303.15 K	308.15 K	313.15 K	318.15 K	323.15 K
x1 = 0.005	1.176 ± 0.011	1.05 ± 0.01	0.915 ± 0.009	0.79 ± 0.008	–	0.649 ± 0.006	0.62 ± 0.006
x1 = 0.01	–	1.152 ± 0.011	1.021 ± 0.01	0.912 ± 0.009	0.821 ± 0.008	0.744 ± 0.007	0.679 ± 0.007
x1 = 0.015	1.42 ± 0.013	1.25 ± 0.012	1.109 ± 0.01	0.968 ± 0.009	0.891 ± 0.009	0.808 ± 0.008	0.736 ± 0.007
x1 = 0.02	1.53 ± 0.014	1.327 ± 0.012	1.191 ± 0.011	1.053 ± 0.01	0.965 ± 0.009	0.86 ± 0.008	0.813 ± 0.008

[Cl-].[Li+] + O
Settings	viscosity
293.15 K, 101 kPa, x1 = 0.17	4.51 ± 0.22 mPa·s
293.15 K, 101 kPa, x1 = 0.19	6.01 ± 0.29 mPa·s
293.15 K, 101 kPa, x1 = 0.2	7.36 ± 0.35 mPa·s
293.15 K, 101 kPa, x1 = 0.22	9.66 ± 0.46 mPa·s
293.15 K, 101 kPa, x1 = 0.23	10.29 ± 0.49 mPa·s
293.15 K, 101 kPa, x1 = 0.24	11.28 ± 0.54 mPa·s and 12.73 ± 0.61 mPa·s
293.15 K, 101 kPa, x1 = 0.25	14.55 ± 0.7 mPa·s
293.15 K, 101 kPa, x1 = 0.26	15.87 ± 0.76 mPa·s
293.15 K, 101 kPa, x1 = 0.27	17.76 ± 0.86 mPa·s
298.15 K, 101 kPa, x1 = 0.26	16.51 ± 0.47 mPa·s
298.15 K, 101.33 kPa, x1 = 0.2626	10.73 ± 0.43 mPa·s
303.15 K, 101 kPa, x1 = 0.17	3.42 ± 0.16 mPa·s
303.15 K, 101 kPa, x1 = 0.19	4.61 ± 0.22 mPa·s
303.15 K, 101 kPa, x1 = 0.2	5.59 ± 0.27 mPa·s
303.15 K, 101 kPa, x1 = 0.22	7.24 ± 0.35 mPa·s
303.15 K, 101 kPa, x1 = 0.23	7.44 ± 0.36 mPa·s
303.15 K, 101 kPa, x1 = 0.24	8.19 ± 0.39 mPa·s and 9.29 ± 0.45 mPa·s
303.15 K, 101 kPa, x1 = 0.25	10.53 ± 0.51 mPa·s
303.15 K, 101 kPa, x1 = 0.26	11.37 ± 0.55 mPa·s
303.15 K, 101 kPa, x1 = 0.27	12.85 ± 0.62 mPa·s
310.15 K, 101 kPa, x1 = 0.000205	0.7179 ± 0.0063 mPa·s
310.15 K, 101 kPa, x1 = 0.00126	0.7026 ± 0.0062 mPa·s
310.15 K, 101 kPa, x1 = 0.001978	0.7036 ± 0.0062 mPa·s
310.15 K, 101 kPa, x1 = 0.002695	0.6772 ± 0.006 mPa·s
310.15 K, 101 kPa, x1 = 0.003679	0.6492 ± 0.0058 mPa·s
310.15 K, 101 kPa, x1 = 0.005197	0.5792 ± 0.0053 mPa·s
310.15 K, 101 kPa, x1 = 0.005988	0.5574 ± 0.0051 mPa·s
313.15 K, 101 kPa, x1 = 0.17	2.73 ± 0.13 mPa·s
313.15 K, 101 kPa, x1 = 0.19	3.59 ± 0.17 mPa·s
313.15 K, 101 kPa, x1 = 0.2	4.32 ± 0.21 mPa·s
313.15 K, 101 kPa, x1 = 0.22	5.44 ± 0.26 mPa·s
313.15 K, 101 kPa, x1 = 0.23	5.67 ± 0.27 mPa·s
313.15 K, 101 kPa, x1 = 0.24	6.36 ± 0.3 mPa·s and 6.96 ± 0.33 mPa·s
313.15 K, 101 kPa, x1 = 0.25	7.83 ± 0.38 mPa·s
313.15 K, 101 kPa, x1 = 0.26	8.46 ± 0.41 mPa·s
313.15 K, 101 kPa, x1 = 0.27	9.36 ± 0.45 mPa·s
323.15 K, 101 kPa, x1 = 0.17	2.26 ± 0.11 mPa·s
323.15 K, 101 kPa, x1 = 0.19	2.94 ± 0.14 mPa·s
323.15 K, 101 kPa, x1 = 0.2	3.49 ± 0.17 mPa·s
323.15 K, 101 kPa, x1 = 0.22	4.37 ± 0.21 mPa·s
323.15 K, 101 kPa, x1 = 0.23	4.48 ± 0.21 mPa·s
323.15 K, 101 kPa, x1 = 0.24	4.99 ± 0.24 mPa·s and 5.38 ± 0.26 mPa·s
323.15 K, 101 kPa, x1 = 0.25	6.06 ± 0.29 mPa·s
323.15 K, 101 kPa, x1 = 0.26	6.55 ± 0.31 mPa·s
323.15 K, 101 kPa, x1 = 0.27	7.22 ± 0.35 mPa·s
